ChEMBL document CHEMBL1201862, “PubChem BioAssay data set” (2004)
Calls of active or inactive are those of the source. Rule as the data show it, for most assays here: actives have a measured EC50 and inactives only a lower limit.

What was measured:
[1] = biological target: T1, Aminopeptidase N (Plasmodium falciparum FcB1/Columbia, UniProt O96935); assay: P. falciparum M1AAP inhibitors, biochemical, fluorogenic H-Leu-NHMec substrate, 1536-well (AID 1445); set-up: species or system Plasmodium falciparum 3D7, 3D7
T1 sequence (O96935 whole entry): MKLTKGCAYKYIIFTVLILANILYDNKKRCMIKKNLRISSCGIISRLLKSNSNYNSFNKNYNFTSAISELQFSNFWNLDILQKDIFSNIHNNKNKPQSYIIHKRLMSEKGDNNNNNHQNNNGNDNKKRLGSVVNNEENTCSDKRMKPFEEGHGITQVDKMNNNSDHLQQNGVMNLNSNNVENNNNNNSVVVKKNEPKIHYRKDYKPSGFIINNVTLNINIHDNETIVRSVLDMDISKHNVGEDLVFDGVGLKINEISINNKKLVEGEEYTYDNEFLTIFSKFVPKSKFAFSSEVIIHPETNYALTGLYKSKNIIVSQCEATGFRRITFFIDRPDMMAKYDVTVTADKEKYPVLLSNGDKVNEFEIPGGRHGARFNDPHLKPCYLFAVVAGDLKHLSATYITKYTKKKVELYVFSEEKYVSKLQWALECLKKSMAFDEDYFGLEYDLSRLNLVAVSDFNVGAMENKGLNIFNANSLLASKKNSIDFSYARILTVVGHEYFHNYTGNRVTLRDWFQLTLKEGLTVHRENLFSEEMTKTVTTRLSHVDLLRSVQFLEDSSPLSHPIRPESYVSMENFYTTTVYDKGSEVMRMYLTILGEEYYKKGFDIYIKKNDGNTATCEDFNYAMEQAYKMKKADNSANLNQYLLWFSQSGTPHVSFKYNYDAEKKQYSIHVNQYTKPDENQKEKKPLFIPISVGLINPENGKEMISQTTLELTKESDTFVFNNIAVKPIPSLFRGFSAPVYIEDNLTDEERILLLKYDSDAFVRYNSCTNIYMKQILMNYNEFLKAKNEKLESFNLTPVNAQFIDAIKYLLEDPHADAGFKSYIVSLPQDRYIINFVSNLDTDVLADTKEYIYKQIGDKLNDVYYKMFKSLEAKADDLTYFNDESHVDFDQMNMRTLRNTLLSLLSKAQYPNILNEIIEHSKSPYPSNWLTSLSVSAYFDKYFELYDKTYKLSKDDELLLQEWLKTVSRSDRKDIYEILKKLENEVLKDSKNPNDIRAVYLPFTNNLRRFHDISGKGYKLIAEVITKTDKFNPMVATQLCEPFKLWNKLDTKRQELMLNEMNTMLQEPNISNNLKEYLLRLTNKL

[2] = biological target: Heat shock protein HSP 90-alpha (Homo sapiens, UniProt P07900); assay type: functional, organism-based
[3] = biological target: T2, Corticotropin-releasing factor receptor 2/Corticotropin-releasing factor-binding protein (Homo sapiens, UniProt P24387+Q13324); assay: activators of CRF receptor 2 with binding protein – uHTS hits, confirmation (AID 602473); assay type: functional; conditions: read-out: EC50_Mean
T2 sequence (Q13324 whole entry): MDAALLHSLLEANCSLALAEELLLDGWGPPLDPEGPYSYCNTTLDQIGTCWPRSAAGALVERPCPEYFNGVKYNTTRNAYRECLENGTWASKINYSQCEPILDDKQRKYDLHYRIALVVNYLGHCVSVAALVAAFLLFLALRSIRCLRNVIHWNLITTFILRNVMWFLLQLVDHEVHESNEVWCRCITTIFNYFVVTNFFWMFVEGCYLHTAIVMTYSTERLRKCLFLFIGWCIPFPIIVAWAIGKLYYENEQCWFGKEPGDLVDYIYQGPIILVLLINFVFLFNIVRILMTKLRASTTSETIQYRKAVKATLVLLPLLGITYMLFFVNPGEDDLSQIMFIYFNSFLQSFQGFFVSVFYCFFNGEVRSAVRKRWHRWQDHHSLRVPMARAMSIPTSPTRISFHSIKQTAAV
T2 sequence (P24387 whole entry): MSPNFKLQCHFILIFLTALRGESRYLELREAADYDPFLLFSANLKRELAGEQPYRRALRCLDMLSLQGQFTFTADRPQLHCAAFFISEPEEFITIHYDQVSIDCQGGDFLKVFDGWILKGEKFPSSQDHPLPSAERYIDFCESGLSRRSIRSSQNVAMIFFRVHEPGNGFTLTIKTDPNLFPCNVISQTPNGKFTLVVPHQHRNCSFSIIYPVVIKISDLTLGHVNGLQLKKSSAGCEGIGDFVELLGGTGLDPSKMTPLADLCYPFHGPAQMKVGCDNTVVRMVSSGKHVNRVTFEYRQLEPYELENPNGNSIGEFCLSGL

[4] = THP-1 cell cytotoxicity, dose response, cytotoxicity control for Vif-APOBEC3G degradation inhibitor project, THP-1 cells (AID 1117359); assay type: functional; conditions: Human immunodeficiency virus 1, THP-1
[5] = Luminescence Cell-Based Dose Response HTS to Identify Activators of Luciferase Translation or Activity in H4 […] Cells. [Related pubchem assays: 1829 (Project Summary), 1814 (Primary HTS)]; assay type: functional
[6] = test system: Streptococcus sp. 'group A'; assay: growth inhibition of control SK(-) GAS strain, dose response, counter-screen for streptokinase expression inhibitor project, luminescence, kanamycin, BacTiterGlo, confirmation (AID 1900); assay type: functional, organism-based
[7] = test system: H4; assay: Luminescence Cell-Based Dose Response HTS to Identify Activators of 5'UTR Stem-Loop Driven Prion Protein mRNA Translation in H4 Neuroglioblastoma Cells. [Related pubchem assays: 1829 (Project Summary), 1814 (Primary HTS)]; assay type: functional; conditions: Homo sapiens
[8] = biological target: T3, Streptokinase A (Streptococcus pyogenes serotype M1, UniProt P10520); assay: S. pyogenes streptokinase expression inhibitors, potency, dose response, plasminogen activation absorbance, OD405 (AID 1914); assay type: functional, Streptococcus pyogenes M1 GAS;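 also: secreted streptokinase activity via plasminogen activation per viability signal from cell pellet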
T3 sequence (P10520 whole entry): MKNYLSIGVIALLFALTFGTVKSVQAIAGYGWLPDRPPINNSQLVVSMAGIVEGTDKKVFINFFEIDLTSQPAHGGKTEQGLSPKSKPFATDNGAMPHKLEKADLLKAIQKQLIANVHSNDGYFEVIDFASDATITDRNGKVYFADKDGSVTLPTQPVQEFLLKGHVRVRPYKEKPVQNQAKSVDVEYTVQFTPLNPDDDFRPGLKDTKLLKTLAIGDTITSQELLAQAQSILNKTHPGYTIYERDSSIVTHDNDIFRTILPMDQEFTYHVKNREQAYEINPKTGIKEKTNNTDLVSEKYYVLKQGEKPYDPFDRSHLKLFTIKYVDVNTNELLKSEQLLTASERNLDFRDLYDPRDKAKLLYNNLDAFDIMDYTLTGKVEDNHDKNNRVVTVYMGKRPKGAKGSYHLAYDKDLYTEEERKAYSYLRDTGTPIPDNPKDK

[9] = inhibitors of intracellular T. cruzi replication, confirmation, NIH3T3 host cells, beta-gal luminescence (AID 2044); assay type: functional, cell-based;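 also: intracellular parasites grown in NIH/3T3 mouse fibroblasts as host cells; luminescent beta-galactosidase reporter signal from transgenic T. cruzi replicating inside host cells; inhibitors lower the luminescence signal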
[10] = cytotoxicity toward NIH3T3 fibroblasts, dose response, counter-screen, cell-based, ATP luminescence, mouse fibroblasts (AID 2010); assay type: functional;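 also: cells exposed to compound for about 90 hours before reading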
[11] = test system: Streptococcus; assay: Group A Streptococcus viability loss, dose response, counter-screen for streptokinase expression inhibitor project, luminescence, BacTiterGlo (AID 1915); assay type: functional, organism-based;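 also: potency for reduction of bacterial viability or growth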
[12] = biological target: Nonstructural protein 1 (Influenza A virus, UniProt Q194T2); assay type: functional, Influenza A virus (A/California/07/2009(H1N1))
[13] = NIH-3T3 fibroblast cytotoxicity, dose response, cytotoxicity control, cell-based, fluorescence, Alamar Blue, secondary assay (AID 2327); assay type: functional;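 also: NIH-3T3 mouse fibroblasts cultured with fluconazole at 8 µg/mL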
[14] = test system: BJ; assay: cytotoxicity toward BJ-TERT fibroblasts, dose response, cell-based, RAS-independent, luminescence (AID 1933); assay type: functional; conditions: Homo sapiens
[15] = test system: BJ; assay: cells; assay type: functional, cell-based; conditions: Homo sapiens
[16] = C. albicans growth with fluconazole, confirmation, fluorescence, retest (AID 2467); assay type: functional, cell-based
[17] = test system: BJ; assay: cytotoxicity toward BJ-TERT-LT-ST fibroblasts, dose response, cell-based, RAS-independent, luminescence (AID 1935); assay type: functional; conditions: Homo sapiens;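 also: BJ fibroblasts immortalized with TERT plus LT and ST oncogenes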
[18] = cytotoxicity toward DRD oncogenic fibroblasts, dose response, cell-based, non-viral oncogenic, luminescence (AID 1934); assay type: functional; conditions: Homo sapiens
[19] = biological target: T4, Coagulation factor XII (Homo sapiens, UniProt P00748); assay type: functional;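 also: activated factor XIIa alpha cleaving a fluorogenic AMC peptide substrate; inhibitor potency from loss of enzyme activity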
T4 sequence (P00748 whole entry): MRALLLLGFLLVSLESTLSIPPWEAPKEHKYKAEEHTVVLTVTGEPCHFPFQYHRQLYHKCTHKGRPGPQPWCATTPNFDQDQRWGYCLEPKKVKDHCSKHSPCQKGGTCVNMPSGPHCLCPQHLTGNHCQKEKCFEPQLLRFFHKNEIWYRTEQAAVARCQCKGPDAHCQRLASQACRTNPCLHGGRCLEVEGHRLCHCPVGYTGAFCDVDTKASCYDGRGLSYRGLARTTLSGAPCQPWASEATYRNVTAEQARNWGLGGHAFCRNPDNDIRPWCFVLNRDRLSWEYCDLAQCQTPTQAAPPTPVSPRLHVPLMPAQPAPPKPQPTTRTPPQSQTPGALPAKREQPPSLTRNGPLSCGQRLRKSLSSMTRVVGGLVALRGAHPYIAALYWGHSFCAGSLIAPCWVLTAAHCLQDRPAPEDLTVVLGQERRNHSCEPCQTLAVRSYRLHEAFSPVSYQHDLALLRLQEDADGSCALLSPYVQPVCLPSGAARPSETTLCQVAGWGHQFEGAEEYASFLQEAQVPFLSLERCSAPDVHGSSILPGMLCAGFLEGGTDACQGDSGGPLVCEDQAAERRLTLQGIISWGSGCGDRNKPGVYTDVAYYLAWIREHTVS

[20] = THP-1 cell cytotoxicity, dose response, cytotoxicity control for non-replicating M. tuberculosis project (AID 489025); assay type: functional
[21] = HepG2 cell cytotoxicity, dose response, cytotoxicity control for non-replicating M. tuberculosis project (AID 489018); assay type: functional; conditions: Mycobacterium tuberculosis
[22] = test system: Vero; assay: cells; assay type: functional; conditions: Chlorocebus sabaeus
[23] = inhibitors of firefly luciferase expression or activity, dose response, H4 neuroglioma cells, luminescence (AID 1990); assay type: functional, cell-based
[24] = Luminescence Cell-Based Dose Response HTS to Identify Inhibitors of 5'UTR Stem-Loop Driven Prion Protein mRNA Translation in H4 Neuroglioblastoma Cells. [Related pubchem assays: 1827 (Project Summary), 1813 (Primary HTS)]; assay type: functional
[25] = inhibitors of SNCA 5'UTR-driven reporter translation, confirmation, H4 neuroglioma cells, luminescence (AID 1988); assay type: functional, cell-based
[26] = growth suppression of PTEN-null colon cells, dose response, cell-based, HCT116 PTEN knockout (AID 1047); assay type: functional;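 also: HCT116 colon tumor cells with PTEN knocked out; cells exposed to compound for 60 hours before readout; potency for loss of cell viability measured by luminescence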
[27] = growth suppression of beta-catenin-knockout colon cells, dose response, cell-based, HCT116, human colon tumor (AID 1045); assay type: functional;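 also: HCT116 colon tumor cells with beta catenin knocked out; cells exposed to compound for 60 hours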

Chain of Nonstructural protein 1 (Q194T2 whole entry): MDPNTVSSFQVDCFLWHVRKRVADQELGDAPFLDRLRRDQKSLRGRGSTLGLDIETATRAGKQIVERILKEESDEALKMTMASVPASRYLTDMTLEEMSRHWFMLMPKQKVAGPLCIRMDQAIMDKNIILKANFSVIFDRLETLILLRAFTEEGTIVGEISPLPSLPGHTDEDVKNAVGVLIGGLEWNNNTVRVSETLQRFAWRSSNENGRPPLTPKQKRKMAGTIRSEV

## O=C(NN1C(=O)c2ccccc2NC1c1ccoc1)c1ccccc1 (stereo not drawn)
[1]
  IC50: 46.5 µM (active)

## COCCOC(=O)/C(=C/c1ccc(OC(=O)c2ccccc2)cc1)C(C)=O
[2]
  AC50: 3.02 µM (active)
[3]
  EC50: > 53 µM (inactive)

## Nc1nnc(SCC(=O)Nc2ccccc2-c2ccccc2)[nH]1
[1]
  IC50: 51.2 µM (active)

## COc1ccc2nc(N3CCN(C(=O)c4ccc5ncsc5c4)CC3)sc2c1
[4]
  CC50: > 40 µM (active)

## CCOC(=O)CC1C(=O)NCCN1c1nc2ccc(C)cn2c(=O)c1/C=C1\SC(=S)N(CC(C)C)C1=O (stereo not drawn)
[1]
  IC50: 35.7 µM (active)

## CN(C)C=O.NS(=O)(=O)c1cccc(NC(=O)CSc2nc(O)c3c(C(F)(F)F)cc(-c4cccs4)nc3n2)c1
[1]
  IC50: 30.5 µM (active)

## Nc1nc(-c2ccccn2)nc(N)c1Cc1ccccc1F
[5]
  EC50: 5.85 µM (active)
[6]
  EC50: 11 µM (active)
[7]
  EC50: 0.414 µM (active)
[8]
  EC50: > 150 µM (not active)
[9]
  EC50: 2.52 µM (active)
[10]
  EC50: > 60 µM (not active)
[11]
  EC50: > 150 µM (not active)
[12]
  IC50: 6.51 µM (active)

## CCOc1ccc(-c2c(C)[n+](-c3ccc(OCC)cc3)c3n2CCCCC3)cc1.[O-][Cl+3]([O-])([O-])[O-]
[13]
  EC50: 39.3 µM (active)
[14]
  EC50: 9.44 µM (inconclusive)
[15]
  EC50: 8.54 µM (active)
[16]
  EC50: 2.36 µM (active)
[17]
  EC50: 17.1 µM (active)
[18]
  EC50: 13.5 µM (inconclusive)
[19]
  IC50: > 50 µM (inactive)

## COc1ccccc1N1CCN(C(=O)c2ccoc2C)CC1
[4]
  CC50: > 40 µM (active)

## COc1ccc2cc(C(=O)NCc3ccccc3CN3CCCC3)ccc2c1
[20]
  CC50: > 40 µM (active)
[21]
  CC50: > 20 µM (active)

## CCC(C)(C)n1nnnc1C(c1cccnc1)N1CCC(Cc2ccccc2)CC1 (stereo not drawn)
[9]
  EC50: 0.151 µM (active)
[10]
  EC50: 49 µM (active)
[2]
  AC50: 1.09 µM (active)

## CCN(CC(=O)NC(C)(C)C)C(=O)CCl
[22]
  CC50: 22.2 µM (active)

## COc1cc(/C=C(/C#N)c2nc3ccccc3[nH]2)ccc1OCC(=O)Nc1ccccc1C(C)C
[23]
  EC50: 1.4 µM (active)
[14]
  EC50: 2.97 µM (active)
[24]
  EC50: 3.34 µM (active)
[25]
  EC50: 0.56 µM (active)
[15]
  EC50: 3.15 µM (active)
[26]
  EC50: 19.6 µM (active)
[27]
  EC50: 3.91 µM (active)
[17]
  EC50: 5.76 µM (inconclusive)
[18]
  EC50: 2.81 µM (active)

## O=C(c1ccco1)N1CCN(C(=O)c2cn(-c3ccccc3)nc2-c2ccccc2)CC1
[4]
  CC50: 32.8 µM (active)

## Cc1ccc(C(=O)/C=C/c2cc(C#N)n(C)c2C)cc1
[4]
  CC50: > 40 µM (active)

## C=CCn1c(CNC(=O)c2ccccc2F)nnc1SCC(=O)NC(C)c1ccccc1 (stereo not drawn)
[1]
  IC50: 103 µM (active)

## Cc1ccccc1S(=O)(=O)Nc1ncnc2scc(-c3ccccc3)c12
[1]
  IC50: 24.3 µM (active)

## Cc1cccc(N2CCN(S(=O)(=O)c3c(C)noc3/C=C/N(C)C)CC2)c1C
[2]
  AC50: 4.74 µM (active)
